Columns and labels:
[1] = pKCu, stability constant of the Cu2+ chelate by Cu ion electrode method; format: physicochemical
Description: The pKCu was obtained by the following procedures. A Cu ion electrode method was used (Orion pH/ion analyzer; Cu ion electrode). A 0.1M triethanolamine-HCl (pH 8) buffer solution was used.
First of all, standard copper ion buffer solutions [400, 320, 240, 160 or 80 ppm (reduced to Cu^2+)] were prepared using CuCl2.2H2O, and a calibration curve was prepared using a copper ion electrode.
Then, a sample weighing 0.1 g was dissolved in 100 ml of a buffer solution in a measuring flask. To the sample solution was added dropwise a 0.05M CuCl2.2H2O buffer solution (pH 8) from a burette in 0.6 ml portions, and the potential of the Cu ion electrode was measured. The titration was conducted until the potential exceeded the level corresponding to 400 ppm (reduced to Cu^2+). Blank measurements were also carried out. A free Cu ion concentration was calculated from the potential, and the calculated value was corrected for the change in amount of the liquid of the measurement system due to the titration. Assuming that addition of an equimolar amount of Cu to a sample produces a 1:1 (by mole) complex, pKCu can be obtained from formula 1:
Stability Constant KML=[ML]/([M][L])
[ML]: Concentration of metal/chelating agent complex
[M]: Concentration of free metal ion
[L]: Concentration of free chelating agent

[2] = Solubility of copper salt of chelating compound in physiological saline; details: stirred 30 minutes
[3] = log stability constant with Cu2+, 25° C., 0.1M triethanolamine-HCl pH 8

Compound	pKCu (25° C.) [1, 3]	Solubility of Cu Salt (25° C.) [2]	pKCu (25° C.) ([1]; pH 8)
Monooleyl Phosphate	3.3	–	–
CC(C)c1cccc(O)c(=O)c1 [β-Thujaplicin, β-thujaplicin]	7.9	<0.0001 wt %	–
O=C(O)CN(CCN(CC(=O)O)CC(=O)O)CC(=O)O [EDTA, ethylenediaminetetraacetic acid, reference compound]	–	–	18.79
O=P(O)(O)OP(=O)(O)OP(=O)(O)O [Sodium Tripolyphosphate, reference compound]	6.8	1 wt %	–
CC(C)c1ccc(O)c(=O)cc1 [γ-Thujaplicin, γ-thujaplicin]	7.9	–	–
Monooleyl Citrate	6.4	–	–
O=C([O-])CC(O)(CC(=O)[O-])C(=O)[O-].[Na+].[Na+].[Na+] [Trisodium Citrate, reference compound]	5.2	–	–
